Measured values from article PMC9490060, “Synthesis and evaluation of anticancer activity of quillaic acid derivatives: A cell cycle arrest and apoptosis inducer through NF-κB and MAPK pathways” (Frontiers in Chemistry, 2022).

What was measured:
[1] = system: HCT116 (human colorectal cancer cell line); assay: MTT anti-proliferative assay, HCT116; format: cell-based; details: Homo sapiens, HCT-116, 48 h incubation, means ± SD, n = 3
Source text: (§1) The anti-proliferative activities against five human cancer cell lines, including HCT116 (human colorectal cancer cell line), MCF-7 (human breast cancer cell line), SW620 (human colorectal cancer cell line), BEL7402 (human hepatocellular carcinoma cell line), and HepG2 (human hepatocellular carcinoma cell line) were established for all the target compounds using the MTT assay.
(§2) The propidium iodide (PI) and Annexin V-FITC apoptosis detection kit were purchased from Invitrogen (Eugene, OR, United States). 3-(4,5-Dimethylthiazol-2-yl)-2,5-diphenyl-2H-tetrazolium bromide (MTT) was purchased from Sigma-Aldrich Co. (St. Louis, MO, United States). All human cell lines were used in this study, colorectal cancer cell HCT116, colorectal cancer cell SW620, breast cancer cell MCF-7, liver hepatocellular carcinoma cell BEL7402, liver hepatocellular carcinoma HepG2 and normal liver cell L02 were initially purchased from American Type Culture Collection (ATCC, Manassas, VA, United States). RPMI-1640 media, Dulbecco’s modified Eagle’s medium (DMEM), and foetal bovine serum (FBS) were provided from Gibco Company (Grand Island, NY, United States). Cell line MCF-7 and HepG2 were cultivated in DMEM containing 10% (v/v) heat-inactivated FBS, 100 units/ml penicillin and […] streptomycin (Grand Island, NY, United States). Cell lines HCT116, BEL7402, SW620, and L02 were cultivated in RPMI 1640 medium containing 10% (v/v) heat-inactivated FBS, 100 units/ml penicillin, and […] streptomycin. The cells were incubated at 37°C under a 5% CO2 and 90% relative humidity (RH) atmosphere.
(§3) Stock solutions were prepared by diluting target compounds in DMSO at concentrations (1.25, 2.5, 5, and 10 mM). The stock solution was then diluted (1.25, 2.5, 5, and 10 μM) with culture medium, and the concentration of DMSO was controlled not to exceed 0.1%.
(§4) Place the cells in a 96-well plate at an appropriate density to ensure exponential growth (1 × 10^4–1.2×10^4 cells per well) throughout the experiment, and then allow the cells to adhere for 24 h. The cells were then treated with continuous concentrations of each compound (1.25, 2.5, 5, and 10 μM) for 48 h. After 48 h of incubation, 15 μl of MTT solution was added to each well, and the final concentration was 2 mg/ml. Then incubate for another 4 h. After incubation, remove the MTT solution and add […] of DMSO to each well for staining. Shake vigorously for 10 min at room temperature to ensure complete dissolution. The optical density (OD) was read on a microplate reader (ELx 800, BioTek, Highland Park, Winooski, VT, United States) with a wavelength of 492 nm, and then the data was analyzed.

[2] = system: SW620 (human colorectal cancer cell line); assay: MTT anti-proliferative assay, SW620; format: cell-based; details: Homo sapiens, SW-620, 48 h incubation, means ± SD, n = 3
Source text: as §1, §2, §3, §4

[3] = system: BEL7402 (human hepatocellular carcinoma cell line); assay: MTT anti-proliferative assay, BEL7402; format: cell-based; details: Homo sapiens, Bel-7402, 48 h incubation, means ± SD, n = 3
Source text: as §1, §2, §3, §4

[4] = system: HepG2 (human hepatocellular carcinoma cell line); assay: MTT anti-proliferative assay, HepG2; format: cell-based; details: Homo sapiens, HepG2, 48 h incubation, means ± SD, n = 3
Source text: as §1, §2, §3, §4

[5] = system: MCF-7 (human breast cancer cell line); assay: MTT anti-proliferative assay, MCF-7; format: cell-based; details: Homo sapiens, MCF7, 48 h incubation, means ± SD, n = 3
Source text: as §1, §2, §3, §4

[6] = system: L02 (human normal liver cells); assay: Cytotoxicity against normal cell line L02; format: cell-based
Source text: The lack of selectivity between normal and cancer cells is one of the main limitations of antitumor drugs ([Dy and Adjei, 2013]). Therefore, we evaluated the cytotoxicity of compounds B2, and E in normal cell lines L02 (human normal liver cells) to determine the selectivity index (ratio of cytotoxicity in L02 cells compared to that in cancer cells). […] Therefore, this compound was chosen for further biological studies.
as §2, §3, §4

IC50 [1] [µM]	IC50 [2] [µM]	IC50 [3] [µM]	IC50 [4] [µM]	IC50 [5] [µM]	melting point [°C]	Structure (SMILES)	IC50 ([6]; Homo sapiens, normal cell line L02) [µM]	Selectivity index BEL7402 ([6]; IC50 on normal cells (L02)/IC50 on tumour cells (BEL7402))	Selectivity index HCT116 ([6]; IC50 on normal cells (L02)/IC50 on tumour cells (HCT116))	Selectivity index SW620 ([6]; IC50 on normal cells (L02)/IC50 on tumour cells (SW620))
3.12 ± 0.87	7.75 ± 1.43	2.84 ± 0.66	4.59 ± 1.73	3.99 ± 1.28	122 to 124	CC1(C)CC[C@]2(C(=O)OCc3nnc(-c4ccc(F)cc4)o3)[C@H](O)C[C@]3(C)C(=CC[C@@H]4[C@@]5(C)CC[C@H](O)[C@@](C)(C=O)[C@@H]5CC[C@]43C)[C@@H]2C1 [Compound B2, (5-(4-fluorophenyl)-1,3,4-oxadiazol-2-yl)methyl (4aR,5R,6aS,6bR,8aR,9S,10S,12aR,12bR,14bS)-9-formyl-5,10-dihydroxy-2,2,6a,6b,9,12a-hexamethyl-1,3,4,5,6,6a,6b,7,8,8a,9,10,11,12,12a,12b,13,14b-octadecahydropicene-4a (2H)-carboxylate]	> 10	> 3.52	> 3.20	> 1.29
3.21 ± 1.07	7.25 ± 1.72	> 10	> 10	> 10	186 to 188	COc1ccc(-n2cnn(CCOC(=O)[C@]34CCC(C)(C)C[C@H]3C3=CC[C@@H]5[C@@]6(C)CC[C@H](O)[C@@](C)(C=O)[C@@H]6CC[C@@]5(C)[C@]3(C)C[C@H]4O)c2=O)cc1 [Compound C5, 2-(4-(4-methoxyphenyl)-5-oxo-4,5-dihydro-1H-1,2,4-triazol-1-yl)ethyl (4aR,5R,6aS,6bR,8aR,9S,10S,12aR,12bR,14bS)-9-formyl-5,10-dihydroxy-2,2,6a,6b,9,12a-hexamethyl-1,3,4,5,6,6a,6b,7,8,8a,9,10,11,12,12a,12b,13,14b-octadecahydropicene-4a (2H)-carboxylate]				
> 10	> 10	> 10	> 10	> 10	204 to 206	Cc1ccc(-n2cc(COC(=O)[C@]34CCC(C)(C)C[C@H]3C3=CC[C@@H]5[C@@]6(C)CC[C@H](O)[C@@](C)(C=O)[C@@H]6CC[C@@]5(C)[C@]3(C)C[C@H]4O)nn2)cc1 [Compound A9, (1-(p-tolyl)-1H-1,2,3-triazol-4-yl)methyl (4aR,5R,6aS,6bR,8aR,9S,10S,12aR,12bR,14bS)-9-formyl-5,10-dihydroxy-2,2,6a,6b,9,12a-hexamethyl-1,3,4,5,6,6a,6b,7,8,8a,9,10,11,12,12a,12b,13,14b-octadecahydropicene-4a (2H)-carboxylate]				
3.65 ± 1.06	7.23 ± 1.56	9.15 ± 2.21	8.38 ± 2.22	> 10	126 to 128	COc1ccc(-c2nnc(COC(=O)[C@]34CCC(C)(C)C[C@H]3C3=CC[C@@H]5[C@@]6(C)CC[C@H](O)[C@@](C)(C=O)[C@@H]6CC[C@@]5(C)[C@]3(C)C[C@H]4O)o2)cc1 [Compound B4, (5-(4-methoxyphenyl)-1,3,4-oxadiazol-2-yl)methyl (4aR,5R,6aS,6bR,8aR,9S,10S,12aR,12bR,14bS)-9-formyl-5,10-dihydroxy-2,2,6a,6b,9,12a-hexamethyl-1,3,4,5,6,6a,6b,7,8,8a,9,10,11,12,12a,12b,13,14b-octadecahydropicene-4a (2H)-carboxylate]				
